The values below come from US11230532B2, “Pyrimidines and variants thereof, and uses therefor” (Afferent Pharmaceuticals Inc., priority 2016, dated 2022).

Like-named read-outs stand apart in the source and are kept apart here.

In assay [1] the test system is P2X3. The following applies: oxygen-linked analogs; from Carter et al, Bioorg Med Chem Lett 2009; cited from earlier work.
For assay [2], the system named is P2X3. Put plainly: Mean pIC50s at P2X3 from Carter et al (literature). In kind it is cell-based.
Assay [3] addresses T1, human P2X2/3 receptor (heteromeric P2X2/3 channels) (Homo sapiens, UniProt P56373+Q9UBL9).
T1 construct: expressed in transfected cells; host or cells: 1321N1 human astrocytoma cells (1321N1-hP2X2/3)
T1 sequence (P56373 1-397): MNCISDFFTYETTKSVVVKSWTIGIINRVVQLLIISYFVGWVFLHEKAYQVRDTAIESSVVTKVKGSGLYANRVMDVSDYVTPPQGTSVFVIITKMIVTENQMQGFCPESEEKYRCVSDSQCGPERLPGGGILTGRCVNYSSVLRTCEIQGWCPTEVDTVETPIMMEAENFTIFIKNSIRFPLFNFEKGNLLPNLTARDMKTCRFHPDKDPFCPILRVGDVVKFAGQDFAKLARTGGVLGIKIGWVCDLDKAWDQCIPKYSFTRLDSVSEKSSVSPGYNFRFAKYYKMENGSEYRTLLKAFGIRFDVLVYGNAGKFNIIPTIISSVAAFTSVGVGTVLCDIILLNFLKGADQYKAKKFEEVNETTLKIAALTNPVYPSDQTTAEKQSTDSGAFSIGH
T1 sequence (Q9UBL9 1-471): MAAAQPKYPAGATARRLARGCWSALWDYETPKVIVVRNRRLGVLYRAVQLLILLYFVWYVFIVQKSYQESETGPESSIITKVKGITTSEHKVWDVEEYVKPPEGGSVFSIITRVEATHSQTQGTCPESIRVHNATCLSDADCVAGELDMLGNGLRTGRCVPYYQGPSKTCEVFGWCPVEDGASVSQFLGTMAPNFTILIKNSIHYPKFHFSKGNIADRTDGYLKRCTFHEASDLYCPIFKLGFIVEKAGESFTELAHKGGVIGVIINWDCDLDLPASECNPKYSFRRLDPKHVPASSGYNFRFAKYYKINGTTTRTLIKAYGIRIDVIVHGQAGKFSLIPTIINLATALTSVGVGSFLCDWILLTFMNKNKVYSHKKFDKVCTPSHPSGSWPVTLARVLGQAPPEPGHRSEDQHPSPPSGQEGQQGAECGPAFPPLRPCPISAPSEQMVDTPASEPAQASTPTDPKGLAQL
Put plainly: FlexStation calcium fluorescence assay, heteromeric P2X2/3 channels (1321N1-hP2X2/3 cells). It is filed as cell-based. The following applies: agonist 3 μM ATP, highest concentration tested 10 μM, read-out: Average pIC50 P2X2/3 (converted). The procedure: (§1) 1321N1 human astrocytoma and HEK293 human embryonic kidney cells were stably transfected with human P2X2 and P2X3 receptor subunits to form heteromeric P2X2/3 channels and passaged in flasks. Additionally, HEK293 cells were stably transfected with human P2X3 receptor subunits to form homomeric P2X3 channels.
(§2) Approximately 24 hours before the FlexStation calcium fluorescence experiment, cells were released from their flasks, centrifuged and re-suspended in nutrient medium. The cells were aliquoted into black-wall, clear-bottom 96 well plates at a density of 25,000 cells per well and incubated overnight in a humidified, CO2-enriched (5%) atmosphere at 37° C.
(§3) On the day of the experiment, cells were washed with assay buffer (calcium- and magnesium-free Hank's balanced salt solution, 20 mM HEPES, 2 mM CaCl2; AB) and loaded with 4 μM Fluo-4 (P2X2/3) or Calcium 6 (Molecular Devices, according to manufacturer's instructions; P2X3) calcium-sensitive fluorescent dye in 100 μL AB.
(§4) After 1 hour of dye loading at 37° C., 1321N1-hP2X2/3 cells were washed two times with AB and test compound or vehicle added to each well in a total volume of 150 μL AB. HEK-hP2X3 cells were not washed because the Calcium 6 dye kit includes an extracellular dye that quenches unabsorbed Calcium 6 dye; test compound or vehicle were added directly to the assay plates to achieve the appropriate concentration of test compound in a total volume of 150 μL AB.
(§5) After 20 minutes incubation at RT and protected from light, the assay plates were loaded into the FlexStation microplate reader and baseline fluorescence measured with an excitation wavelength of 485 nm and emission wavelength readings centered at 525 nm (515 nm cut off).
(§6) The agonist was dispensed by the FlexStation during fluorescence measurement to construct agonist activation and antagonist inhibition curves. The final agonist concentration for inhibition was 1 μM α,β-meATP for P2X3 and 3 μM ATP for P2X2/3. Peak fluorescence was measured and curves generated using a four parameter nonlinear regression equation.

Assay [4] concerns the target T2, human P2X3 receptor (homomeric P2X3 channels) (Homo sapiens, UniProt P56373).
T2 construct: expressed in transfected cells; host or cells: HEK293 human embryonic kidney cells (HEK-hP2X3)
T2 sequence (P56373 1-397): T1 sequence (P56373 1-397)
The experiment in a line: FlexStation calcium fluorescence assay, homomeric P2X3 channels (HEK-hP2X3 cells). In kind it is cell-based. The following applies: for IC50: HEK293 cells stably transfected with human P2X3, agonist 1 μM α,β-meATP, highest concentration tested 10 μM, read-out: Average pIC50 P2X3 (converted); for Selectivity P2X3/P2X2/3: potency ratio P2X3 over P2X2/3 from pIC50s. The method, then:
as §1, §2, §3, §4, §5, §6

Turning to `COc1cc(C(C)C)c(Oc2cnc(N)nc2N)cc1I` [B, X = O], in the assay on P2X3 [1], the “P2X3 mean pIC50, X = O” value is listed as 8.0. In the assay on P2X3 [2], the “Selectivity, X = O” value is recorded as 8.

In the case of `COc1cc(C(C)C)c(Oc2cnc(N)nc2N)cc1S(C)(=O)=O` [C, X = O], the “P2X3 mean pIC50, X = O” value in the assay with P2X3 [1] is 7.0. In the assay on P2X3 [2], the “Selectivity, X = O” value is listed as 10.

Consider `COc1nc(C(C)C)c(Oc2cnc(N)nc2N)cc1SC` [Compound 41], for which the IC50 in assay [3] was 501 nM. In assay [4], the IC50 was 12.6 nM and the “Selectivity P2X3/P2X2/3” value turned out to be 41.

Take `COc1nc(C(C)C)c(Oc2cnc(N)nc2N)cc1[S+](C)[O-]` (stereo not shown) [Compound 42]: the IC50 in assay [3] was above 10000 nM. Besides, in assay [4], the IC50 was 316 nM and the “Selectivity P2X3/P2X2/3” value was above 33.

As to `COc1nc(C(C)C)c(Oc2cnc(N)nc2N)cc1S(C)(=N)=O` (stereo not shown) [Compound 43], in assay [3], the IC50 was above 10000 nM. For the same compound, in assay [4], the IC50 was 3160 nM and the “Selectivity P2X3/P2X2/3” value is above 3.4.

Turning to `COc1cc(Nc2cnc(N)nc2N)c(C(C)C)nc1OC` [Compound 44], in assay [3], the IC50 is 2000 nM. In addition, in assay [4], the IC50 was 10 nM and the “Selectivity P2X3/P2X2/3” value is on record as 225.

For the compound `COc1nc(C(C)C)c(Oc2cnc(N)nc2N)nc1N(C)C` [Compound 45], the IC50 in assay [3] is above 10000 nM. In addition, in assay [4], the IC50 is 1580 nM and the “Selectivity P2X3/P2X2/3” value is recorded as above 6.0.

In the case of `COc1nc(C(C)C)c(Oc2cnc(N)nc2N)nc1C(F)(F)F` [Compound 46], in assay [3], the IC50 was 1000 nM. Moreover, in assay [4], the IC50 was 100 nM and the “Selectivity P2X3/P2X2/3” value amounted to 10.

For `COc1nc(C(C)C)c(Oc2cnc(N)nc2N)cc1SC(F)(F)F` [Compound 47], the IC50 in assay [3] is 1260 nM. Besides, in assay [4], the IC50 was 631 nM and the “Selectivity P2X3/P2X2/3” value is given as 2.1.

`COc1cc(C(C)C)c(Oc2cnc(N)nc2N)cc1Cl` [D, X = O]: in the assay with P2X3 [1], the “P2X3 mean pIC50, X = O” value was 7.6. Further, in the assay with P2X3 [2] (potency ratio P2X3 over P2X2/3 from the cited pIC50s), the “Selectivity, X = O” value stood at 4.

`COc1cc(Oc2cnc(N)nc2N)c(C(C)C)cc1OC` [Row A, X = O, reference compound]: the “P2X3 mean pIC50, X = O” value in the assay on P2X3 [1] was 7.6.
